Test results published in ChEMBL document CHEMBL4342419 (Eur J Med Chem, 2019).
pIC50, pKi: −log10 of the molar value.

Experiments:
[1] = biological target: T1, 5-hydroxytryptamine receptor 1A (Homo sapiens, UniProt P08908); experiment: Antagonist activity at 5-HT1A receptor (unknown origin)
T1 sequence (P08908 whole entry): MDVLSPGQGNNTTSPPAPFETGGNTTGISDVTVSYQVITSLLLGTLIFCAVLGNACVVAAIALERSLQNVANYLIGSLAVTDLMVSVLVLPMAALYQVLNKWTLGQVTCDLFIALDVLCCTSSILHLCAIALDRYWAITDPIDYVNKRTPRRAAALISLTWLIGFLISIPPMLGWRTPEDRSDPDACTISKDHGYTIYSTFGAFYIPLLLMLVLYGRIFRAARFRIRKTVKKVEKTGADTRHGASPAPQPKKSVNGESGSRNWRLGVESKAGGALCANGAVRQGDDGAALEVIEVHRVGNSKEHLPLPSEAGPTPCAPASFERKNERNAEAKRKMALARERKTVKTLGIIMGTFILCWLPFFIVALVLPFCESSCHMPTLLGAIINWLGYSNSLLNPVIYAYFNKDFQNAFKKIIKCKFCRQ

[2] = biological target: T2, 5-hydroxytryptamine receptor 7 (Homo sapiens, UniProt P34969); experiment: biochemical; type: cell-based
T2 sequence (P34969 whole entry): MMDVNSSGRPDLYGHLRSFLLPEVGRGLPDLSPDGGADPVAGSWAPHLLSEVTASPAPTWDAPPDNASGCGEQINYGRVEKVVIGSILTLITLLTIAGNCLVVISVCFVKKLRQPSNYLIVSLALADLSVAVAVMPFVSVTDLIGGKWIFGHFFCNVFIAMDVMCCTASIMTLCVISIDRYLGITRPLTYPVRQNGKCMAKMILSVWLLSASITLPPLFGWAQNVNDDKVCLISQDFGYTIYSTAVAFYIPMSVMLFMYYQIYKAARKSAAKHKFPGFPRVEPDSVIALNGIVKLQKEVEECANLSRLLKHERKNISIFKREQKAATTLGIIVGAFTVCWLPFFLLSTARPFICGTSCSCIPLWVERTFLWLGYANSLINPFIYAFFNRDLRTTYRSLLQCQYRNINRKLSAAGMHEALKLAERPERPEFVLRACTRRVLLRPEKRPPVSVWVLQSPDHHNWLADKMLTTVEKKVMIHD

[3] = biological target: T2, 5-hydroxytryptamine receptor 7; experiment: Antagonist activity at 5-HT7 receptor (unknown origin)
[4] = biological target: 5-hydroxytryptamine receptor 7 (Rattus norvegicus, UniProt P32305); experiment: Displacement of [3H]5-CT from recombinant rat 5-HT7 receptor expressed in HEK293 cells; type: cell-based
Chain of 5-hydroxytryptamine receptor 7 (Rattus norvegicus, UniProt P32305) (P32305 whole entry): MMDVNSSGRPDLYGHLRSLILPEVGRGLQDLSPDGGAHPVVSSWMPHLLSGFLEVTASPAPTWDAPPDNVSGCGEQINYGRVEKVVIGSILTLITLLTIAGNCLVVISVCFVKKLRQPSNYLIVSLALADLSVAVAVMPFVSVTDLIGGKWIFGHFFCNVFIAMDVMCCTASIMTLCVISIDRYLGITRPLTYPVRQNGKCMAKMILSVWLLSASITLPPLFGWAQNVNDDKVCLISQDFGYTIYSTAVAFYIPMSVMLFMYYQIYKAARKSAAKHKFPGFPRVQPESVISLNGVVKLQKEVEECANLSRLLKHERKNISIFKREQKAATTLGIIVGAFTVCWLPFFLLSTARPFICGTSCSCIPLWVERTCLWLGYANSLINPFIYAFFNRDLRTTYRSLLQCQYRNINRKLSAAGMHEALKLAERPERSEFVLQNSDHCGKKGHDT

| SMILES | pKi [1] | further results |
| --- | --- | --- |
| CCC1(CCCCN2CCN(c3ccc(Cl)cc3)CC2)C(=O)Nc2cc(F)ccc21 (stereo not drawn) | 5.79 | – |
| O=C1Cc2ccccc2N1CC/C=C/CCN1CCc2ccccc2C1 | < 6.00 | – |
| CC(Nc1nc(N)nc(NCCOc2ccc(F)cc2)n1)c1ccc(F)cc1 (stereo not drawn) | < 7.00 | – |
| Cc1cccc(S(=O)(=O)N(C)[C@H](C)CCN2CCC(C)CC2)c1 [SB-258719] | < 5.52 | – |
| CCN(CC)C(=O)[C@@H]1C=C2c3cccc4[nH]c(Br)c(c34)C[C@H]2N(C)C1 | – | pKi [2]: 7.50 |
| CNC(=O)Cn1c2c(c3ccccc31)CN(CCCCC13CCCc4cccc(c41)NC3=O)CC2 (stereo not drawn) | 6.89 | pKi [3]: 8.45 |
| O=S(=O)(c1ccc2cc[nH]c2c1)N1CCC[C@H]1CCN1CCC(Oc2ccc(Cl)cc2)CC1 | 6.25 | pKi [3]: 8.70 |
| COc1ccccc1N1CCN(Cc2cn(-c3cccc4ccccc34)c3ccccc23)CC1 | 6.15 | – |
| COc1cccc(OC)c1-c1cccc(CCN(C)C)c1 | 5.32 | – |
| CC(Nc1nc(N)nc(NCCOc2ccccc2)n1)c1ccccc1 (stereo not drawn) | < 7.00 | pKi [3]: 8.52 |
| CCOc1ccccc1N1CCN(CCCCC(=O)NCc2nc3cc(F)ccc3c(=O)n2-c2ccccc2)CC1 | – | pIC50 [1]: 6.30 |
| Clc1ccc(-c2nn(Cc3ccccc3)c3c2CCNCC3)cc1 [JNJ-18038683 FREE BASE] | 8.19 | pKi [4]: 6.50 |
| Cc1nn(C)c(C)c1-c1ccc(O)c(CCN(C)C)c1 | < 5.00 | – |
| COc1ccc(S(=O)(=O)NCCCN2CCN(c3ccccc3OC)CC2)cc1 | 6.57 | – |
